Measured values published in ChEMBL document CHEMBL2028040, “Malaria Box”.

Key:
[1] = system: Trypanosoma brucei brucei; assay: MMV: Inhibition of Trypanosoma brucei brucei (Squib 427) (HAT in vitro).; format: functional, organism-based
Trypanosoma cruzi = assay: MMV: Inhibition of Trypanosoma cruzi (Tulahuen C4 LacZ) (Chagas in vitro).; format: functional, organism-based
Plasmodium falciparum [2] = assay: MMV: Inhibition of Plasmodium falciparum 3D7 (EC50).; format: functional, organism-based
[3] = system: Trypanosoma brucei rhodesiense; assay: MMV: Inhibition of Trypanosoma brucei rhodesiense (STIB 900) (HAT in vitro).; format: functional, organism-based
Leishmania infantum = assay: MMV: Inhibition of Leishmania infantum (MHOM/MA/BE/67) in vitro.; format: functional, organism-based
Plasmodium falciparum [4] = assay: MMV: Inhibition of Plasmodium falciparum K1 (EC50).; format: functional, organism-based
[5] = MMV: Cytotoxicity against human fibroblasts (MRC-5) cells.; details: MRC-5 cells (human fibroblasts)
Plasmodium falciparum [6] = assay: MMV: Inhibition of Plasmodium falciparum 3D7 at 5uM compound concentration.; format: functional

CCOC(=O)c1ccc2nc(-c3ccccc3)cc(O)c2c1
IC50 [1]: > 32 µM
IC50 (Trypanosoma cruzi): 1.53 µM
EC50 (Plasmodium falciparum [2]): 0.118 µM
IC50 [3]: > 32 µM
IC50 (Leishmania infantum): 16.2 µM
EC50 (Plasmodium falciparum [4]): 0.6 µM
IC50 [5]: 7.58 µM
inhibition at 5 µM (Plasmodium falciparum [6]): 96%

Oc1c(C(Nc2ccccn2)c2cccc(Oc3ccccc3)c2)ccc2cccnc12 (stereo not drawn)
IC50 [1]: 1.01 µM
IC50 (Trypanosoma cruzi): 1.05 µM
EC50 (Plasmodium falciparum [2]): 1.01 µM
IC50 [3]: 0.972 µM
IC50 (Leishmania infantum): 1 µM
EC50 (Plasmodium falciparum [4]): 1.07 µM
IC50 [5]: 3.89 µM
inhibition at 5 µM (Plasmodium falciparum [6]): 97%

COc1cc(-c2nc(-c3ccc(Sc4ccccc4)cc3)c(-c3ccccc3)[nH]2)cc(OC)c1O
IC50 [1]: 3.37 µM
IC50 (Trypanosoma cruzi): 11.1 µM
EC50 (Plasmodium falciparum [2]): 0.35 µM
IC50 [3]: 3.61 µM
IC50 (Leishmania infantum): 16.2 µM
EC50 (Plasmodium falciparum [4]): 0.976 µM
IC50 [5]: 8.45 µM
inhibition at 5 µM (Plasmodium falciparum [6]): 97%

COc1cccc(C(=O)NC(c2ccc(C)cc2)c2cc(Cl)c3cccnc3c2O)c1 (stereo not drawn)
IC50 [1]: 3.49 µM
IC50 (Trypanosoma cruzi): 3.77 µM
EC50 (Plasmodium falciparum [2]): 0.393 µM
IC50 [3]: 4.06 µM
IC50 (Leishmania infantum): > 32 µM
EC50 (Plasmodium falciparum [4]): 0.527 µM
IC50 [5]: > 32 µM
inhibition at 5 µM (Plasmodium falciparum [6]): 97%

CCOC(=O)c1c(NC(=O)c2ccccc2)sc2c(O)c(CN(CC)CC)ccc12
IC50 [1]: > 32 µM
IC50 (Trypanosoma cruzi): > 32 µM
EC50 (Plasmodium falciparum [2]): 0.205 µM
IC50 [3]: > 32 µM
IC50 (Leishmania infantum): 16.2 µM
EC50 (Plasmodium falciparum [4]): 0.114 µM
IC50 [5]: > 32 µM
inhibition at 5 µM (Plasmodium falciparum [6]): 96%

COC(=O)c1ccc(C2C3=C(O)CC(c4ccc(F)cc4)CC3=Nc3ccccc3N2C(=O)c2ccccc2)cc1 (stereo not drawn)
IC50 [1]: 4.18 µM
IC50 (Trypanosoma cruzi): > 32 µM
EC50 (Plasmodium falciparum [2]): 0.327 µM
IC50 [3]: 1.72 µM
IC50 (Leishmania infantum): 1.59 µM
EC50 (Plasmodium falciparum [4]): 0.724 µM
IC50 [5]: > 32 µM
inhibition at 5 µM (Plasmodium falciparum [6]): 98%

CCOc1ccc(/C=C/c2nc(=O)c3ccccc3o2)cc1
IC50 [1]: > 32 µM
IC50 (Trypanosoma cruzi): 17.9 µM
EC50 (Plasmodium falciparum [2]): 0.56 µM
IC50 [3]: 30.5 µM
IC50 (Leishmania infantum): > 32 µM
EC50 (Plasmodium falciparum [4]): 0.893 µM
IC50 [5]: > 32 µM
inhibition at 5 µM (Plasmodium falciparum [6]): 95%

CCOC(=O)C1=C(C)N=c2sc(=Cc3cc(Cl)ccc3O)c(=O)n2C1c1ccc(OC)cc1 (stereo not drawn)
IC50 [1]: 14.2 µM
IC50 (Trypanosoma cruzi): 14.1 µM
EC50 (Plasmodium falciparum [2]): 0.489 µM
IC50 [3]: 4.15 µM
IC50 (Leishmania infantum): 16.2 µM
EC50 (Plasmodium falciparum [4]): 0.49 µM
IC50 [5]: 16.6 µM
inhibition at 5 µM (Plasmodium falciparum [6]): 97%

COc1ccccc1N1C(=N)SC(=Cc2ccc(OCc3ccccc3F)cc2)C1=O
IC50 [1]: 10 µM
IC50 (Trypanosoma cruzi): 16.3 µM
EC50 (Plasmodium falciparum [2]): 0.478 µM
IC50 [3]: 4.12 µM
IC50 (Leishmania infantum): 25.4 µM
EC50 (Plasmodium falciparum [4]): 0.824 µM
IC50 [5]: > 32 µM
inhibition at 5 µM (Plasmodium falciparum [6]): 95%

CN(C)CCCNc1c2ccccc2nc2ccccc12
IC50 [1]: < 0.125 µM
IC50 (Trypanosoma cruzi): 1 µM
EC50 (Plasmodium falciparum [2]): 0.235 µM
IC50 [3]: < 0.125 µM
IC50 (Leishmania infantum): 1.01 µM
EC50 (Plasmodium falciparum [4]): 1.56 µM
IC50 [5]: 2.86 µM
inhibition at 5 µM (Plasmodium falciparum [6]): 95%

Cn1c(=O)n(C)c2cc(CNCCNc3ccnc4cc(Cl)ccc34)ccc21
IC50 [1]: 11.5 µM
IC50 (Trypanosoma cruzi): 16.9 µM
EC50 (Plasmodium falciparum [2]): 0.545 µM
IC50 [3]: 0.419 µM
IC50 (Leishmania infantum): 17.3 µM
EC50 (Plasmodium falciparum [4]): 1.51 µM
IC50 [5]: > 32 µM
inhibition at 5 µM (Plasmodium falciparum [6]): 90%

Cc1ccc(-c2cc3c(nn2)-c2ccccc2C3=O)cc1
IC50 [1]: > 32 µM
IC50 (Trypanosoma cruzi): > 32 µM
EC50 (Plasmodium falciparum [2]): 0.0944 µM
IC50 [3]: 15 µM
IC50 (Leishmania infantum): > 32 µM
EC50 (Plasmodium falciparum [4]): 0.165 µM
IC50 [5]: > 32 µM
inhibition at 5 µM (Plasmodium falciparum [6]): 99%

Cc1cc(C=C2SC(=Nc3ccccc3)N(C3CCCC3)C2=O)c(C)n1-c1ccc(Cl)cc1
IC50 [1]: > 32 µM
IC50 (Trypanosoma cruzi): > 32 µM
EC50 (Plasmodium falciparum [2]): 0.263 µM
IC50 [3]: > 32 µM
IC50 (Leishmania infantum): 25.4 µM
EC50 (Plasmodium falciparum [4]): 0.666 µM
IC50 [5]: > 32 µM
inhibition at 5 µM (Plasmodium falciparum [6]): 97%

Cc1ccc(N2C(=O)C3C(C2=O)C2(c4ccccc4)C(=O)C3(c3ccccc3)C(c3ccccc3)=C2c2ccccc2)cc1 (stereo not drawn)
IC50 [1]: > 32 µM
IC50 (Trypanosoma cruzi): > 32 µM
EC50 (Plasmodium falciparum [2]): 0.282 µM
IC50 [3]: > 32 µM
IC50 (Leishmania infantum): > 32 µM
EC50 (Plasmodium falciparum [4]): 0.396 µM
IC50 [5]: > 32 µM
inhibition at 5 µM (Plasmodium falciparum [6]): 98%

CCOC(=O)C1=CN(C)C=C(C(=O)OCC)C1c1cc(Br)c(OCC)c(OC)c1
IC50 [1]: 15.7 µM
IC50 (Trypanosoma cruzi): 13.6 µM
EC50 (Plasmodium falciparum [2]): 0.518 µM
IC50 [3]: 13.9 µM
IC50 (Leishmania infantum): > 32 µM
EC50 (Plasmodium falciparum [4]): 0.945 µM
IC50 [5]: > 32 µM
inhibition at 5 µM (Plasmodium falciparum [6]): 97%

Clc1cc(Br)ccc1-c1ccc(CNCC2CCNCC2)o1
IC50 [1]: < 0.125 µM
IC50 (Trypanosoma cruzi): 1.01 µM
EC50 (Plasmodium falciparum [2]): 0.8 µM
IC50 [3]: < 0.125 µM
IC50 (Leishmania infantum): 1 µM
EC50 (Plasmodium falciparum [4]): 1.62 µM
IC50 [5]: 4.03 µM
inhibition at 5 µM (Plasmodium falciparum [6]): 96%

Cn1c(=O)c2cc(C(=O)NCCCN3CCCCCC3)sc2c2ccccc21
IC50 [1]: > 32 µM
IC50 (Trypanosoma cruzi): > 32 µM
EC50 (Plasmodium falciparum [2]): 0.669 µM
IC50 [3]: 17.4 µM
IC50 (Leishmania infantum): > 32 µM
EC50 (Plasmodium falciparum [4]): 0.576 µM
IC50 [5]: > 32 µM
inhibition at 5 µM (Plasmodium falciparum [6]): 97%

O=C(NC(c1ccccc1)c1ccc2cccnc2c1O)c1ccccc1 (stereo not drawn)
IC50 [1]: < 0.125 µM
IC50 (Trypanosoma cruzi): < 0.125 µM
EC50 (Plasmodium falciparum [2]): 1.17 µM
IC50 [3]: < 0.125 µM
IC50 (Leishmania infantum): 16.6 µM
EC50 (Plasmodium falciparum [4]): 1.45 µM
IC50 [5]: 11.8 µM
inhibition at 5 µM (Plasmodium falciparum [6]): 95%

OC(CNC1CCCC1)Cn1c2ccccc2c2ccccc21 (stereo not drawn)
IC50 [1]: 1.02 µM
IC50 (Trypanosoma cruzi): 14 µM
EC50 (Plasmodium falciparum [2]): 0.66 µM
IC50 [3]: 1.01 µM
IC50 (Leishmania infantum): 5.38 µM
EC50 (Plasmodium falciparum [4]): 0.239 µM
IC50 [5]: 18.8 µM
inhibition at 5 µM (Plasmodium falciparum [6]): 97%

COc1cccc(NC(=O)Cn2c(C)c(C#N)c3ccccc32)c1
IC50 [1]: > 32 µM
IC50 (Trypanosoma cruzi): > 32 µM
EC50 (Plasmodium falciparum [2]): 1.09 µM
IC50 [3]: 20.2 µM
IC50 (Leishmania infantum): > 32 µM
EC50 (Plasmodium falciparum [4]): 1.48 µM
IC50 [5]: > 32 µM
inhibition at 5 µM (Plasmodium falciparum [6]): 95%

Cc1ccc(C(=O)c2oc3ccc4c(C)cc(=O)oc4c3c2C)cc1
IC50 [1]: > 32 µM
IC50 (Trypanosoma cruzi): > 32 µM
EC50 (Plasmodium falciparum [2]): 0.906 µM
IC50 [3]: > 32 µM
IC50 (Leishmania infantum): > 32 µM
EC50 (Plasmodium falciparum [4]): 1.04 µM
IC50 [5]: 21.2 µM
inhibition at 5 µM (Plasmodium falciparum [6]): 96%

O=C(CCl)NCCOc1ccc(Cl)cc1Cl
IC50 [1]: 11.6 µM
IC50 (Trypanosoma cruzi): 19.1 µM
EC50 (Plasmodium falciparum [2]): 0.555 µM
IC50 [3]: 6.83 µM
IC50 (Leishmania infantum): 10.2 µM
EC50 (Plasmodium falciparum [4]): 1 µM
IC50 [5]: 16.2 µM
inhibition at 5 µM (Plasmodium falciparum [6]): 94%

CSc1ccccc1C(=O)Nc1nc(-c2ccccn2)cs1
IC50 [1]: 0.931 µM
IC50 (Trypanosoma cruzi): 0.25 µM
EC50 (Plasmodium falciparum [2]): 0.206 µM
IC50 [3]: 0.272 µM
IC50 (Leishmania infantum): 0.336 µM
EC50 (Plasmodium falciparum [4]): 0.562 µM
IC50 [5]: 2.78 µM
inhibition at 5 µM (Plasmodium falciparum [6]): 98%

COc1ccc(CNC2CCN(c3ccc(NC(=O)c4cccc(Cl)c4)cc3)CC2)cc1OC
IC50 [1]: 3.09 µM
IC50 (Trypanosoma cruzi): 15.4 µM
EC50 (Plasmodium falciparum [2]): 0.663 µM
IC50 [3]: 3.8 µM
IC50 (Leishmania infantum): 6.35 µM
EC50 (Plasmodium falciparum [4]): 1.61 µM
IC50 [5]: > 32 µM
inhibition at 5 µM (Plasmodium falciparum [6]): 97%

CCN(CC)S(=O)(=O)c1ccc(-c2csc(Nc3ccc(C)c(C)c3)n2)cc1
IC50 [1]: > 32 µM
IC50 (Trypanosoma cruzi): > 32 µM
EC50 (Plasmodium falciparum [2]): 0.641 µM
IC50 [3]: > 32 µM
IC50 (Leishmania infantum): 16.2 µM
EC50 (Plasmodium falciparum [4]): 1.04 µM
IC50 [5]: > 32 µM
inhibition at 5 µM (Plasmodium falciparum [6]): 97%

COc1ccccc1C(=O)ON=C(N)Cc1cccc2ccccc12
IC50 [1]: 15 µM
IC50 (Trypanosoma cruzi): 5.48 µM
EC50 (Plasmodium falciparum [2]): 0.814 µM
IC50 [3]: 2.9 µM
IC50 (Leishmania infantum): > 32 µM
EC50 (Plasmodium falciparum [4]): 0.705 µM
IC50 [5]: 13.9 µM
inhibition at 5 µM (Plasmodium falciparum [6]): 97%
